Holding throughout (test): combination Emax (second highest fraction inhibited in the dose matrix, 72 h); higher = more inhibition; extreme values may be limits of the assay
Experiment [1] deals with MDA-MB-361 (Breast Carcinoma). The method in brief:
(§1)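 Cell lines in DMEM/F12 or RPMI with 10% FBS were plated in 1536-well plates, held 24 hours at 37°C, 5% CO2, then given two-drug dose matrices for 72 hours (DMSO typically 0.2%). Viability was read by CellTiter-Glo 2.0 luminescence and scaled as inhibition from 0 (vehicle wells) to 1 (blank wells). Combination Emax is the second-highest inhibition in the matrix; Bliss excess is observed combination effect minus expected EA + EB − EA·EB, EA and EB being single-agent effects.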

Experiment [2] relates to HO-1-N-1 (Oral Cavity Carcinoma). The method in brief: as §1
Experiment [3] has as its system Daoy (Other Solid Carcinomas). The method in brief: as §1
Experiment [4] relates to CCRF-CEM (T-Lymphoblastic Leukemia). Summed up: as §1
Experiment [5] has as its system HT-1376 (Bladder Carcinoma). The method in brief: as §1
For experiment [6], the system named is HuP-T4 (Pancreatic Carcinoma). The method in brief: as §1
The subject of experiment [7] is DEL (T-Cell Non-Hodgkin's Lymphoma). The method in brief: as §1
Experiment [8] deals with LB831-BLC (Bladder Carcinoma). The method in brief:
as §1

The subject of experiment [9] is MFE-296 (Endometrial Carcinoma). Summed up: as §1
Another experiment relates to ES4 (Ewing's Sarcoma). Summed up: as §1
Experiment [10] relates to UM-UC-3 (Bladder Carcinoma). Summed up:
as §1

For experiment [11], the system named is TE-9 (Esophageal Squamous Cell Carcinoma). Summed up: as §1
Experiment [12] has as its system CaR-1 (Colorectal Carcinoma). Summed up:
as §1

Experiment [13] concerns SNU-5 (Gastric Carcinoma). The method in brief:
as §1

For experiment [14], the system named is TCCSUP (Bladder Carcinoma). The method in brief: as §1
The subject of experiment [15] is NCI-H82 (Small Cell Lung Carcinoma). Summed up:
as §1

Experiment [16] deals with HCC-78 (Lung Adenocarcinoma). Summed up:
as §1

The test system of experiment [17] is RC-K8 (B-Cell Non-Hodgkin's Lymphoma). Summed up: as §1
The test system of another experiment is AGS (Gastric Carcinoma). Summed up:
as §1

In experiment [18] the test system is NCI-H2085 (Non-Small Cell Lung Carcinoma). The method in brief: as §1

For the compound `C[C@@H](c1ccc2nccn2c1)n1nnc2ncc(-c3cnn(C)c3)nc21` [Savolitinib] + CC1(C)CCC(CN2CCN(c3ccc(C(=O)NS(=O)(=O)c4ccc(NCC5CCOCC5)c([N+](=O)[O-])c4)c(Oc4cnc5[nH]ccc5c4)c3)CC2)=C(c2ccc(Cl)cc2)C1 [Venetoclax] (first compound max 1 µM, 7x7, partner max 1 µM), the “combination Emax” value is 0.119 in [1]; 0.158 in experiment [2]; 0.152 in [3]; 0.124 in [4]; 0.103 in experiment [5]; 0.0793 in [6]. In addition, the “combination Emax” value is 0.0701 in [7]; 0.179 in [8]; 0.0764 in experiment [9]; 0.113 with ES4 (Ewing's Sarcoma); 0.143 in experiment [10]; 0.152 in experiment [11]. Besides, the “combination Emax” value in experiment [12] is 0.171; in experiment [13], 0.847; in experiment [14], 0.143; in experiment [15], 0.225; in experiment [16], 0.145; in experiment [17] it was 0.129. For the same compound, the figures for the “combination Emax” value (in the experiment with AGS (Gastric Carcinoma); in experiment [18]) were 0.0926 and 0.107, respectively.
For the compound `NC1(C(=O)N[C@@H](CCO)c2ccc(Cl)cc2)CCN(c2ncnc3[nH]ccc23)CC1` [Capivasertib] + Cn1cnc2c(F)c(Nc3ccc(Br)cc3Cl)c(C(=O)NOCCO)cc21 [Selumetinib] (first compound max 10 µM, 7x7, partner max 10 µM), the “combination Emax” value turned out to be 0.493 in experiment [1]; 0.848 in experiment [2]; 0.472 in experiment [3]; 0.485 in experiment [4]; 0.18 in experiment [5]; 0.396 in [6]. For the same compound, the “combination Emax” value in [7] was found to be 0.578; in experiment [8], 0.545; in experiment [9] it was 0.618; with ES4 (Ewing's Sarcoma) it was 0.398; in [10], 0.533; in experiment [11], 0.398. For the same compound, the “combination Emax” value was 0.564 in [12]; 0.756 in experiment [13]; 0.373 in [14]; 0.903 in experiment [15]; 0.295 in [16]; 0.367 in experiment [17]. Further, the “combination Emax” value in the experiment with AGS (Gastric Carcinoma) stood at 0.953; in experiment [18] it was 0.427.
Turning to `CN(CCO)CC[C@H](CSc1ccccc1)Nc1ccc(S(=O)(=O)NC(=O)c2ccc(N3CCC([C@@H](O)c4ccccc4-c4ccc(Cl)cc4)CC3)cc2)cc1S(=O)(=O)C(F)(F)F` [AZD4320] + CN(C)CCCOc1ccc(-c2ccc3ncc4c(c3c2)n(C2CCOCC2)c(=O)n4C)cn1 [AZD0156] (first compound max 1 µM, 7x7, partner max 1 µM), the “combination Emax” value came to 0.205 in experiment [1]; 0.156 in experiment [2]; 0.156 in experiment [3]; 1 in [4]; 0.484 in experiment [5]; 0.127 in [6]. Further, the “combination Emax” value in [7] was 0.357; in experiment [8], 0.286; in experiment [9], 0.0842; with ES4 (Ewing's Sarcoma), 0.655; in [10], 0.201; in experiment [11], 0.263. In addition, the “combination Emax” value in experiment [12] stood at 0.0707; in experiment [13], 0.245; in experiment [14] it was 0.127; in experiment [15], 0.282; in experiment [16] it was 0.147; in experiment [17] it was 0.407. In addition, the “combination Emax” value in the experiment with AGS (Gastric Carcinoma) worked out at 0.237; in experiment [18], 0.242.
Consider `CN(CCO)CC[C@H](CSc1ccccc1)Nc1ccc(S(=O)(=O)NC(=O)c2ccc(N3CCC([C@@H](O)c4ccccc4-c4ccc(Cl)cc4)CC3)cc2)cc1S(=O)(=O)C(F)(F)F` [AZD4320] + CCN(CCO)CCCOc1ccc2c(Nc3cc(CC(=O)Nc4cccc(F)c4)[nH]n3)ncnc2c1 [AZD2811] (first compound max 1 µM, 7x7, partner max 1 µM), for which the “combination Emax” value in [1] came out at 0.679; in [2] it was 0.886; in experiment [3] it was 0.715; in experiment [4], 1; in [5], 0.784; in experiment [6], 0.274. Besides, the “combination Emax” value worked out at 0.804 in experiment [7]; 0.526 in experiment [8]; 0.11 in [9]; 0.631 with ES4 (Ewing's Sarcoma); 0.226 in experiment [10]; 0.451 in [11]. The “combination Emax” value in [12] came out at 0.208; in experiment [13], 0.45; in [14], 0.543; in experiment [15] it was 0.512; in [16], 0.2; in experiment [17], 0.917. Further, the figures for the “combination Emax” value (in the experiment with AGS (Gastric Carcinoma); in [18]) were 0.979 and 0.692, respectively.
For the compound `Cc1c2c(nn1C)CSCc1cc(n(C)n1)CSc1cc(c3ccccc3c1)OCCCc1c(C(=O)O)n(C)c3c-2c(Cl)ccc13` [AZD5991] + CCN(CCO)CCCOc1ccc2c(Nc3cc(CC(=O)Nc4cccc(F)c4)[nH]n3)ncnc2c1 [AZD2811] (first compound max 1 µM, 7x7, partner max 1 µM), the “combination Emax” value in experiment [1] was determined as 0.913; in experiment [2], 0.993; in experiment [3], 0.505; in [4] it was 0.999; in [5], 0.243; in experiment [6], 0.624. The “combination Emax” value in experiment [7] was 1; in experiment [8] it was 0.444; in experiment [9], 0.45; with ES4 (Ewing's Sarcoma), 0.219; in experiment [10] it was 0.266; in experiment [11], 0.251. Also, the “combination Emax” value was found to be 0.338 in experiment [12]; 0.204 in [13]; 0.321 in experiment [14]; 0.972 in experiment [15]; 0.31 in experiment [16]; 0.379 in experiment [17]. Further, the “combination Emax” value stood at 0.51 with AGS (Gastric Carcinoma) and 0.863 in experiment [18].
Consider `CC1(C)CCC(CN2CCN(c3ccc(C(=O)NS(=O)(=O)c4ccc(NCC5CCOCC5)c([N+](=O)[O-])c4)c(Oc4cnc5[nH]ccc5c4)c3)CC2)=C(c2ccc(Cl)cc2)C1` [Venetoclax] + COc1cc(Nc2ncc3c(n2)-c2ccc(Cl)cc2C(c2c(F)cccc2OC)=NC3)ccc1C(=O)O [Alisertib] (first compound max 1 µM, 7x7, partner max 10 µM), for which the “combination Emax” value in experiment [1] came to 0.773; in [2], 0.876; in experiment [3], 0.932; in [4], 0.992; in experiment [5], 0.246; in experiment [6], 0.355. Further, the “combination Emax” value in experiment [7] is 1; in experiment [8], 0.456; in experiment [9] it was 0.225; in the experiment on ES4 (Ewing's Sarcoma), 0.233; in [10], 0.399; in experiment [11], 0.369. In addition, the “combination Emax” value in [12] turned out to be 0.401; in [13], 0.158; in [14] it was 0.475; in [15], 0.73; in experiment [16], 0.475; in experiment [17] it was 0.585. In addition, the “combination Emax” value in the experiment on AGS (Gastric Carcinoma) turned out to be 0.557; in [18] it was 0.597.

The values are drawn from the supplement of paper PMC11061612.
